Test results reported in patent US6630303B1, “Methods of screening for compounds active on Staphylococcus aureus target genes” (priority 1995, dated 2003).

How the values were obtained:
[1] = test system: ts S. typhimurium mutant alleles of the gyrase subunit A; assay: Hypersusceptibility (MIC) of S. typhimurium gyrA ts mutants at semi-permissive temperature; type: cell-based, Salmonella typhimurium
Protocol: As an illustration of the hypersusceptibility profiles for a group of bacterial ts mutant strains, the minimal inhibitory concentrations (MICs) of various drugs and toxic agents were determined for a set of Salmonella typhimurium temperature-sensitive essential gene mutants.
The MICs were measured by using a standard micro broth dilution technique following the recommendations of the National Committee for Clinical Laboratory Standards (1994). Bacteria were first grown in Mueller-Hinton broth at 30° C., diluted to 10^5 cfu/ml and used to inoculate 96-microwell plates containing two-fold dilutions of antibiotics in Mueller-Hinton broth. Plates were incubated for 20 h at a semi-permissive temperature (35° C.) and the MIC was determined as the lowest dilution of antibiotic preventing visible growth.
A two-fold difference in the susceptibility level of the mutant strain compared to that of the parental strain is within the limits of the experimental variation and thus a ≧4-fold decrease in MIC was considered as a significant hypersusceptibility.
The specific hypersensitivity of temperature sensitive mutations in a known target to inhibitors of that target is shown in FIG. 1 with the susceptibility profile of three ts S. typhimurium mutant alleles of the gyrase subunit A (gyrA212, gyrA215 and gyrA216) grown at a semi-permissive temperature (35° C.).

[2] = test system: Salmonella wild type parent strain; assay: Carbon source utilization profile (gene sensor methodology); type: cell-based; details: sublethal concentration; carbon source not used by the dapA or murCEFG mutant
Text: The growth conditional mutants are also used in gene sensor methodology, e.g., using carbon utilization profiles. Ts mutants fail to metabolize different carbon sources in semi-permissive growth conditions. The carbon sources not utilized by a specific mutant or group of mutants provide additional phenotypes associated with the crippled essential function. Moreover, some of these carbon source markers were also not used by the wild type strain exposed to sub-MIC concentrations of known drugs affecting the same specific cellular targets or pathways.

[3] = mutant gyrA215, semi-permissive temperature 35° C.
[4] = mutant gyrA222, semi-permissive temperature 35° C.

Row | Compound | hypersusceptibility compared to wild-type parent strain [1, 3] | hypersusceptibility compared to wild-type parent strain [1, 4] | carbon source metabolism [2] | hypersusceptibility compared to wild-type parent strain ([1]; mutant gyrA276, semi-permissive temperature 35° C.)
1 | CCn1cc(C(=O)O)c(=O)c2cc(F)c(N3CCNCC3)cc21 [norfloxacin] | hypersusceptibility | hypersusceptibility |  | 
2 | Cn1nnnc1SCC1=C(C(=O)O)N2C(=O)[C@@H](NC(=O)[C@H](O)c3ccccc3)[C@H]2SC1 [cefamandole] |  |  | prevented the Salmonella wild type parent strain from metabolizing the same carbon source | 
3 | coumermycin | hypersusceptibility |  |  | hypersusceptibility
4 | O=C(O)c1cn(C2CC2)c2cc(N3CCNCC3)c(F)cc2c1=O [ciprofloxacin] |  | hypersusceptibility |  | 
